The nature of the series: Toxicity in naive Sprague-Dawley rat assessed as motor impairment at 100 mg/kg, po measured after 5 hrs by rotarod test. Format: organism-based. The note with it: in vivo. On the technique in general: Falling from the rotarod earlier than controls is read as motor impairment.

Take `NCC1(CC(=O)O)CCCCC1` [GABAPENTIN]: the Activity result is listed as “Non-Toxic”.

The values are drawn from ChEMBL document CHEMBL5046296 (J Med Chem, 2022).
